The IC90 is the point of the concentration-response curve where the effect stands at 90%.

The values below come from patent US20020120001A1, “Compositions containing tryptamines, cartenoids and tocotrienols and having synergistic antioxidant effect” (Ashni Naturaceuticals, Inc., priority 2000, published 2002).

In brackets after ≈: the same amount, converted by molar mass.

The experiment in a line: peroxy radical scavenging activity (BODIPY 581/591 C11 fluorescence with AMVN radical generator, microplate; Median Effect/CalcuSyn analysis).
[1] abbreviates: Example 2, concentration of the named component in the 1:1 melatonin and natural astaxanthin mixture.
Where [2] appears, read: Example 4, component of the melatonin and mixed tocotrienols mixture.

Experimental: Measurement of peroxy radical scavenging activity of the individual compounds and combinations was performed essentially as described by Naguib (Analytical Biochemistry(1998) 265:290-298) with modifications to allow the assay to be performed on a microplate. The fatty acid indicator 4,4difluoro-5-(4-phenuyl-1,3-butadienyl)-4-bora-3a-4a-diaza-s-indacene-3-undecanate (BODIPY 581/591 C11) was purchased from Molecular Probes (Eugene, Oreg.). As a peroxy radical generator, 2,2′-azobis-2,4-dimethyl valeronitrile (AMVN) was used and obtained from WAKO Chemicals (Richmond, Va.). All standards were of the highest purity commercially available. Additionally, the solvents were of HPLC grade.
Fluorescence measurements were performed using a Packard FluoroCount microplate fluorometer equipped with a temperature-controlled plate holder. All measurements were preformed in a 96-well polypropylene plate with stirring.
Reactions in octane: butyronitrile (9:1, v/v) were carried out at 30° C. All fluorescence measurements were recorded every 15 minutes for 1 hour at excitation wavelengths of 570 nm, with emission at 620 nm. The net protection (area under the curve, AUC) by the antioxidant sample was calculated using the trapezoid method.
The final reaction mixture (200 μl) for the assay contained 0.5 μg/mL BODIPY 581/591C11 and 0.26 M AMVN in octane:butyronitrile (9:1, v/v). Stock solutions of the test samples were made up in chloroform and 6 μL was added to the reaction mixture to achieve the stated concentrations. The reaction was initiated by the addition of the AMVN fluorometric readings were then recorded every 15 minutes for one hour.
Synergy between melatonin and astaxanthin was assessed using CalcuSyn (BIOSOFT, biosoft.com). This statistical package performs multiple drug dose-effect calculations using the Median Effect methods described by T-C Chou and P. Talaly (Trends Pharmacol. Sci. 4:450-454), hereby incorporated by reference.
Cm is determined from the x-intercept of the median-effect plot. The fraction affected by the concentration of the test material is fa and the fraction unaffected by the concentration is fu (fu=1−fa). The exponent m is the parameter signifying the sigmoidicity or shape of the dose-effect curve. It is estimated by the slope of the median-effect plot.
The median-effect plot is a plot of x=log(C) vs y=log(fa/fu) and is based on the logarithmic form of Chou's median-effect equation. The goodness of fit for the data to the median-effect equation is represented by the linear correlation coefficient r of the median-effect plot.
Synergy of test components was quantified using the combination index (CI) parameter. The CI of Chou-Talaly is based on the multiple drug-effect and is derived from enzyme kinetic models (Chou, T.-C. and Talalay, P. (1977) A simple generalized equation for the analysis of multiple inhibitions of Michaelis-Menten kinetic systems. J. Biol. Chem. 252:6438-6442). The equation determines only the additive effect rather than synergism or antagonism. However, we define synergism as a more than the expected additive effect, and antagonism as a less than the expected additive effect as proposed by Cho and Talalay in 1983 (Trends Pharmacol. Sci. (1983) 4:450-454).
Dose-response curves were described with each test article separately and then in a two-way combination. For the individual dose-response curves, concentrations of melatonin included 100, 500 and 1000 μM, while the concentrations of astaxanthin were 49, 98, 490, and 980 μM.

With `CC1=C(/C=C/C(C)=C/C=C/C(C)=C/C=C/C=C(C)/C=C/C=C(C)/C=C/C2=C(C)C(=O)[C@@H](O)CC2(C)C)C(C)(C)C[C@H](O)C1=O` [Astaxanthin alone, 3, 3′-dihydroxy-β,β-carotene-4, 4′-dieto-β-carotene], under “Example 1, listed as of test material alone”, the IC75 is on record as 185 (107-319) μM. Under “Example 5, test material alone”, the IC50 is 148 (94-232) μg test/mL.

With `CC1=C[C@H](O)CC(C)(C)[C@H]1/C=C/C(C)=C/C=C/C(C)=C/C=C/C=C(C)/C=C/C=C(C)/C=C/C1=C(C)C[C@@H](O)CC1(C)C` [Lutein alone, lutein], the IC50 (Example 3, test material alone) was 61 µM.

Take `CC1=C(/C=C/C(C)=C/C=C/C(C)=C/C=C/C=C(C)/C=C/C=C(C)/C=C/C2=C(C)CCCC2(C)C)C(C)(C)CCC1` [β-Carotene alone, β-carotene]: the IC50 (Example 3, test material alone) is 366 µM.

On to `COc1ccc2[nH]cc(CCNC(C)=O)c2c1` [Melatonin alone, N-acetyl-5-methoxytryptamine], for which the IC50 (Example 1, test material alone, 95% confidence interval in parentheses) was 284 µM; the IC50 under setting [1] is 38 µg/mL; the IC50 (Example 2, test material alone) was 120 (105-137) μg/mL; the IC50 (Example 3, test material alone) was 283 µM; the IC50 (Example 4, test material alone) was 53 (25-112) μg test/mL; the IC50 (Example 5, test material alone) is 53 (25-112) μg test/mL. For the same compound, the “increase in antioxidant potency” value runs as follows: (Example 2, component in 1:1 melatonin and natural astaxanthin combination versus alone) 3.2 fold; (Example 4, component in 1:1 melatonin and mixed tocotrienols combination versus alone) 3.1 fold. In addition, the IC75 under setting [1] is 54 µg/mL (≈ 232 µM). Besides, under setting [1], the IC90 was 77 µg/mL (≈ 331 µM). The “concentration for 50 percent inhibition of peroxy radical formation” value under setting [2] is 17 µg/mL. Under setting [2], the “concentration for 75 percent inhibition of peroxy radical formation” value is 21 µg/mL. Besides, the “concentration for 90 percent inhibition of peroxy radical formation” value under setting [2] is 26 µg/mL.
